Assay results taken from patent US20120149741A1, “TREATMENT OF DUCHENNE MUSCULAR DYSTROPHY” (Biomarin IGA Limited, priority 2007, published 2012).

system: Utrophin A promoter linked to a luciferase reporter gene in mdx mouse H2K cells; experiment: Luciferase reporter assay (murine H2K cells); format: cell-based; conditions: luciferase level, H2K/mdx/Utro A reporter cells, final concentration of 10 μM, 48 hrs
Protocol: The cell line used for the screen is an immortalized mdx mouse H2K cell line that has been stably transfected with a plasmid containing fragment of the Utrophin A promoter including the first untranslated exon linked to a luciferase reporter gene (see FIG. 1).
Under conditions of low temperature and interferon containing media, the cells remain as myoblasts. These are plated into 96 well plates and cultured in the presence of compound for three days. The level of luciferase is then determined by cell lysis and reading of the light output from the expressed luciferase gene utilising a plate luminometer.
The H2K/mdx/Utro A reporter cell line was passaged twice a week until ≦30% confluent. The cells were grown at 33° C. in the presence of 10% CO2.
To remove the myoblasts for platting, they were incubated with Trypsin/EDTA until the monolayer started to detach.
• DMEM Gibco 41966 • 20% FCS • 1% Pen/Strep • 1% glutamine • 10 mls Chick embryo extract • Interferon (1276 905 Roche) Add fresh 10 μl/50 mls medium
The H2K/mdx/Utro A reporter cell line cells were plated out into 96 well plates (Falcon 353296, white opaque) at a density of approximately 5000 cells/well in 190 μl normal growth medium. The plates were then incubated at 33° C. in the presence of 10% CO2 for 24 hrs.
Compounds were dosed by adding 10 μl of diluted compound to each well giving a final concentration of 10 μM. The plates were then incubated for a further 48 hrs.
Cells were then lysed in situ following the manufacture's protocols (Promega Steady-Glo Luciferase Assay System (E2520), then counted for 10 seconds using a plate luminometer (Victor1420).
Compounds for screening were stored at −20° C. as 10 mM stocks in 100% DMSO until required.

Question: For `CC(C)C(=O)Nc1ccc2cnn(-c3ccc4ccccc4c3)c2c1` [Example 1, N-(1-(naphthalen-2-yl)-1H-indazol-6-yl)isobutyramide], which Activity is on record?
Answer: + (Up to 200% relative to control)

Question: For `CC(C)C(=O)Nc1ccc2cn(-c3ccc4ccccc4c3)nc2c1` [Example 2, N-(2-(naphthalen-2-yl)-2H-indazol-6-yl)isobutyramide], which Activity is on record?
Answer: ++++ (Above 401% relative to control)

Question: Which Activity does the source give for `CCS(=O)(=O)c1ccc2cn(-c3ccc(Cl)cc3)nc2c1` [Example 3, 2-(4-chlorophenyl)-6-(ethylsulfonyl)-2H-indazole] here?
Answer: ++ (Between 201% and 300% relative to control)

Question: For `CCS(=O)(=O)c1ccc2nn(-c3ccc4ccccc4c3)nc2c1` [Example 4, 5-(ethylsulfonyl)-2-(naphthalen-2′-yl)-2H-benzo[d][1,2,3]triazole], which Activity is on record?
Answer: ++ (Between 201% and 300% relative to control)
